In patent publication US20020183297A1, “Pharmaceutical composition for the treatment of alopecia” (priority 2001, published 2002):

Tests used:
[1] = tested on: hair growth on scalp of subjects with baldness / hair loss; experiment: compositions tested in humans (topical application to scalp); type: in vivo, human; conditions: summary statement; animals and humans / applied directly to scalp
Experimental: The composition is applied to scalp ideally after thoroughly cleansing hair with soap and water to remove as much sebaceous secretions as possible. Sufficient quantity of the composition is applied to balding areas of scalp repeatedly, 1-2 times per day and applications continued for several days or weeks. It may be necessary, as it has been observed, to repeat the application frequently to keep the new follicular growth and to initiate further growth.
Finally, the compositions were tested in humans. Ten subjects with advanced male pattern baldness used test preparation #1 and #2 (five subjects each) as described above for a period of three weeks. […] Three female subjects with thinning hair used composition #3 and #4 for a period of five weeks daily.

stem cells = experiment: tritiated thymidine labeling of stem cells (murine skin explants; label retaining cells in mice); type: cell-based, mouse
Source text: The effectiveness of stimulant of stem cells can be readily evaluated using the technique of tritiated thymidine labeling. We studied the effectiveness of the invention on stimulation of stem cell populations by using the technique of tritiated thymidine labeling of stem cells. The effects of compositions described here were studied on explants of murine skin. Explant cultures were serially harvested at daily intervals for the first 4 days of exposure, and composition effects on ^3H-TdR (tritiated thymidine) incorporation assessed in accordance with standard techniques. Because of the slow- cycling nature of stem cells, repeated administration of tritiated thymidine is necessary. After the labeling, the cells are chased for four weeks wherein the stem cells retain the label longer and are thus quantitated comparatively to control.
In another series of experiments, a cohort of mice was continuously labeled for 2 weeks with ^3H- TdR and then allowed to rest for 4 weeks. Once labeled, cells that cycle slowly retained isotopes for an extended period of time. Twice daily, subcutaneous injections of ^3H-TdR were given to newborn mice over the first seven days of life resulting in the labeling of almost 100% of nuclei in mouse epidermis, hair follicles, sebaceous glands, fibroblasts, and endothelial cells. […]

For CC[C@H](CC[C@@H](C)[C@H]1CC[C@H]2[C@@H]3CC=C4C[C@@H](O)CC[C@]4(C)[C@H]3CC[C@]12C)C(C)C [β-sitosterol], the growth of hair [1] was “enhance growth of hair” and the “activity of stem cells and/or bulge cells responsible for growth of hair” value (stem cells) was “significantly enhances”.
